Experiment: Inhibition of C-KIT V654A/560-576 deletion mutant in human GIST-430/654 cells assessed as reduction in c-Kit autophosphorylation at […] residue incubated for 45 mins by Luminex bead based assay
Type: cell-based
Conditions: GIST-430/654, 0.75 h

| Compound | IC50 [µM] |
| --- | --- |
| Cn1cc(-c2ccc(CNc3cc(-c4cnc5cc(OC6CCOC6)ccn45)ncn3)cc2)cn1 (configuration not stated) | 0.27 |
| Cc1nc(-c2ccc(CNc3cc(-c4cnc5cc(OCCO)ccn45)ncn3)cc2)co1 | 0.074 |
| COc1ccn2c(-c3cc(NCc4ccc(-c5cnn(C)c5)cc4)ncn3)cnc2c1 | 0.055 |
| Cn1ncc(-c2ccc(CNc3cc(-c4cnc5cc(OCCCN6CCCC6)ccn45)ncn3)cc2)n1 | 0.045 |
| c1ccn2c(-c3cc(NCc4ccc(-n5cccn5)cc4)ncn3)cnc2c1 | 0.19 |
| COc1ccn2c(-c3cc(NCc4ccc(-c5cnn(C)n5)cc4)ncn3)cnc2c1 | 0.078 |
| CNC1CN(c2ccn3c(-c4cc(NCc5ccc(-c6cnn(C)c6)cc5)ncn4)cnc3c2)C1 | 0.14 |
| Cn1ncc(-c2ccc(CNc3cc(-c4cnc5cc(OCCN6CC7(COC7)C6)ccn45)ncn3)cc2)n1 | 0.04 |
| COCCN1CCC(COc2ccn3c(-c4cc(NCc5ccc(-c6cnn(C)n6)cc5)ncn4)cnc3c2)CC1 | 0.039 |
| Cn1cc(-c2ccc(CNc3cc(-c4cnc5cc(CCN6CCN(C7COC7)CC6)ccn45)ncn3)cc2)cn1 | 0.33 |
| Cn1cc(-c2ccc(CNc3cc(-c4cnc5cc(OCCN6CCC[C@@H]7OCC[C@@H]76)ccn45)ncn3)cc2)cn1 | 0.1 |
| CN1CC(COc2ccn3c(-c4cc(NCc5ccc(-c6cnn(C)c6)cc5)ncn4)cnc3c2)C1 | 0.061 |
